{"source": "the OPERA property sets (Mansouri et al. 2018)"}
{"conditions": "not given", "units": {"boiling point": "°C", "melting point": "°C"}}
{"compound": "O=C1CCC1", "boiling point": 99, "log10 vapour pressure (mmHg)": 1.63, "melting point": -50.9}
{"compound": "Cc1ccc2ccccc2c1[N+](=O)[O-]", "melting point": 81.5}
{"compound": "Cc1ccc(OCC(=O)O)cc1", "melting point": 141}
{"compound": "Cc1ccc2c(-c3ccccc3)nc(=O)n(C(C)C)c2c1", "melting point": 138}
{"compound": "CCCCCC(C)CC", "note": "(configuration not stated)", "boiling point": 144, "log10 biodegradation half-life (days)": 0.699, "log10 vapour pressure (mmHg)": 0.796, "melting point": -108}
{"compound": "CCCCCN", "boiling point": 104, "log10 Henry constant (atm·m³/mol)": -4.61, "log10 vapour pressure (mmHg)": 1.48, "melting point": -55, "ready biodegradability": "readily biodegradable"}
{"compound": "OC(CCCN1CCCCC1)(c1ccccc1)c1ccccc1", "melting point": 104}
{"compound": "Brc1ccc(Oc2ccccc2Br)cc1", "log10 Koa": 8.47}
{"compound": "CN(C)CCC(O)(c1ccccc1)c1ccccc1Cl", "note": "(configuration not stated)", "melting point": 120}
{"compound": "CC1CN1", "note": "(configuration not stated)", "boiling point": 67, "log10 vapour pressure (mmHg)": 2.15, "melting point": -65}
{"compound": "CC=Cc1ccc2c(c1)OCO2", "boiling point": 253, "melting point": 8.2}
{"compound": "c1cc(OCC2CO2)cc(OCC2CO2)c1", "note": "(configuration not stated)", "melting point": 42.5}
{"compound": "CC(=NO)c1ccccc1", "boiling point": 245, "melting point": 60}
{"compound": "CCON=O", "boiling point": 18}
{"compound": "CC(C)(C)c1ccc2c(c1)C(=O)c1ccccc1C2=O", "melting point": 99, "ready biodegradability": "not readily biodegradable"}
{"compound": "CC(C)C1=CC[C@H](C)CC1", "boiling point": 168}
{"compound": "Clc1ccc(C(c2ccc(Cl)cc2)C(Cl)(Cl)Cl)cc1", "log10 Henry constant (atm·m³/mol)": -5.08, "log10 Koa": 9.82, "log10 Koc (L/kg)": 5.31, "log10 vapour pressure (mmHg)": -6.8, "melting point": 108, "ready biodegradability": "not readily biodegradable"}
{"compound": "FC(F)=C(F)I", "boiling point": 30}
{"compound": "O=C1OC(=O)[C@H]2[C@@H]1[C@H]1C=C[C@@H]2C1", "melting point": 164}
{"compound": "Cc1cc(O)c2c(c1)C(=O)c1cccc(O)c1C2=O", "melting point": 196}
{"compound": "O=c1ccn([C@H]2CC[C@@H](CO)O2)c(=O)[nH]1", "melting point": 128}
{"compound": "C/C(=C/CC[C@@]1(C)C2C[C@@H]3[C@H](C2)C31C)CO", "boiling point": 302}
{"compound": "CCOC(=O)C1(S(=O)(=O)c2ccc(C)cc2)CCC1", "melting point": 53.5}
{"compound": "O=C(CCl)C(Cl)Cl", "boiling point": 172}
{"compound": "CCNc1nc(NC(C)(C)C)nc(OC)n1", "log10 vapour pressure (mmHg)": -5.7, "melting point": 124}
{"compound": "O=C(NC(=O)c1ccccc1)c1ccccc1", "melting point": 152}
{"compound": "NNc1ccc(S(=O)(=O)O)cc1", "melting point": 286}
{"compound": "Oc1ccccc1C1CCCC1", "melting point": 34.5}
{"compound": "C=CC=CC(=O)O", "melting point": 79}
{"compound": "CN(CC(=O)N1CCOCC1)Cc1c(Cl)cccc1NC(=O)c1ccccc1", "melting point": 123}
{"compound": "CC(=O)C=C(C)C", "boiling point": 130, "log10 vapour pressure (mmHg)": 0.914, "melting point": -59, "ready biodegradability": "readily biodegradable"}
{"compound": "[N-]=[N+]=CC(=O)OC[C@H](N)C(=O)O", "melting point": 154}
{"compound": "C=CCOC(C)=O", "boiling point": 104, "log10 vapour pressure (mmHg)": 1.43}
{"compound": "C[C@H]1C=CC2C(C1)C2(C)C", "note": "(stereo in doubt)", "boiling point": 169}
{"compound": "CCCCCC(C)Br", "note": "(configuration not stated)", "boiling point": 166, "log10 vapour pressure (mmHg)": 0.358, "melting point": 47}
{"compound": "CN(C)CCO", "boiling point": 134, "log10 vapour pressure (mmHg)": 0.502, "melting point": -59, "ready biodegradability": "readily biodegradable"}
{"compound": "C[C@]12CCC(=O)C[C@@H]1CC[C@@H]1[C@@H]2CC[C@]2(C)[C@@H](O)CC[C@@H]12", "melting point": 181}
{"compound": "CCOc1cccc2ccccc12", "boiling point": 280, "melting point": 5.5}
{"compound": "CCC(C)Oc1ccccc1", "note": "(configuration not stated)", "boiling point": 194}
{"compound": "NS(=O)(=O)c1cc2c(s1)SCCC2=O", "melting point": 222}
{"compound": "O=CC(Br)(Br)Br", "boiling point": 174, "log10 vapour pressure (mmHg)": 0.183, "melting point": -57.5}
{"compound": "c1cnc2ccc3ncccc3c2c1", "melting point": 177}
{"compound": "CCO[SiH](OCC)OCC", "boiling point": 134}
{"compound": "N#CCC=CCC#N", "log10 vapour pressure (mmHg)": -2.16, "melting point": 76}
{"compound": "CCNCC(O)c1cccc(O)c1", "note": "(configuration not stated)", "melting point": 148}
{"compound": "O=C1CN(N=Cc2ccc(-c3ccc([N+](=O)[O-])cc3)o2)C(=O)N1", "melting point": 280}
{"compound": "CS(=O)(=O)Nc1ccc([N+](=O)[O-])cc1Oc1ccccc1", "melting point": 144}
{"compound": "Cc1ccsc1C", "boiling point": 142, "melting point": -49}
{"compound": "Clc1cc(-c2c(Cl)cc(Cl)c(Cl)c2Cl)c(Cl)c(Cl)c1Cl", "log10 Henry constant (atm·m³/mol)": -5}
{"compound": "O=C(O)Cc1cn(-c2ccccc2)nc1-c1ccc(Cl)cc1", "melting point": 150}
{"compound": "Cc1ccc(OP(=O)(Oc2ccc(C)cc2)Oc2ccc(C)cc2)cc1", "melting point": 77.5}
{"compound": "Cc1ccc2occc2c1", "boiling point": 198}
{"compound": "COc1cc(-c2ccc(N)c(OC)c2)ccc1N", "boiling point": 356, "melting point": 137, "ready biodegradability": "not readily biodegradable"}
{"compound": "CCCCCCCCOCCCCCCCC", "boiling point": 283, "melting point": -7.6, "ready biodegradability": "readily biodegradable"}
{"compound": "CC=CC(C)C(C)C=CC", "note": "(configuration not stated)", "boiling point": 154, "melting point": -64.8}
{"compound": "C/C(=C/c1ccccc1)CC(N)=O", "melting point": 133}
{"compound": "c1ccc(-c2c3ccccc3c(-c3ccccc3)c3ccccc23)cc1", "log10 vapour pressure (mmHg)": -9.84, "melting point": 246}
{"compound": "CCc1cc(C)cc(C)c1", "boiling point": 184, "log10 biodegradation half-life (days)": 0.301, "log10 vapour pressure (mmHg)": 0.0133, "melting point": -84.3}
{"compound": "Cn1cnc([N+](=O)[O-])c1Sc1ncnc2nc[nH]c12", "melting point": 244}
{"compound": "CC(C)c1ccc(O)c(O)c1", "boiling point": 271, "melting point": 78}
{"compound": "CCC(=O)F", "boiling point": 44}
{"compound": "CC(=O)NC1C(O)OC(CO)C(O)C1O", "note": "(configuration not stated)", "ready biodegradability": "readily biodegradable"}
{"compound": "CC(=O)c1ccccc1", "boiling point": 202, "log10 Henry constant (atm·m³/mol)": -4.98, "log10 Koc (L/kg)": 1.8, "log10 vapour pressure (mmHg)": -0.401, "melting point": 20, "ready biodegradability": "readily biodegradable"}
{"compound": "Nc1cccc2ncccc12", "boiling point": 310, "log10 vapour pressure (mmHg)": -4.77, "melting point": 110}
{"compound": "CC(=O)c1ccc[nH]1", "boiling point": 220, "melting point": 90}
{"compound": "Oc1cccc(C(F)(F)F)c1", "boiling point": 178, "melting point": -1.8}
{"compound": "OCC1=CCN2CC[C@@H](O)[C@@H]12", "melting point": 120}
{"compound": "O=C1NC(=O)c2c1cccc2[N+](=O)[O-]", "melting point": 214}
{"compound": "O=c1cc(-c2ccccc2)oc2cc(O)ccc12", "melting point": 246}
{"compound": "O=c1ccc2cc3ccoc3cc2o1", "melting point": 164}
{"compound": "COC(=O)c1ccc(O)cc1O", "melting point": 120}
{"compound": "O=C(O)c1ccccc1S(=O)(=O)O", "melting point": 141, "ready biodegradability": "not readily biodegradable"}
{"compound": "CC(C)(C)OOC(C)(C)c1ccc(C(C)(C)OOC(C)(C)C)cc1", "ready biodegradability": "not readily biodegradable"}
{"compound": "O=C(O)Cc1ccc(Cl)cc1", "melting point": 106}
{"compound": "CCOc1ccc2cc(O)c(O)cc2c1", "melting point": 132}
{"compound": "CNC(=O)Nc1ccc(C)c(Cl)c1", "log10 Koc (L/kg)": 2.1}
{"compound": "CCCC(C)C(C)CCC", "note": "(configuration not stated)", "boiling point": 162}
{"compound": "C1OC1C1CO1", "note": "(configuration not stated)", "log10 Koc (L/kg)": 0.4, "log10 vapour pressure (mmHg)": 1.59}
{"compound": "CN(C)NC(=O)CCC(=O)O", "log10 Koc (L/kg)": 0.95, "melting point": 154}
{"compound": "Clc1ccc(-c2ccccc2Cl)cc1Cl", "log10 Henry constant (atm·m³/mol)": -3.8, "log10 vapour pressure (mmHg)": -3.99}
{"compound": "C[Si]1(C)N[Si](C)(C)N[Si](C)(C)N[Si](C)(C)N1", "boiling point": 225, "melting point": 97.5}
{"compound": "FCCCl", "boiling point": 53.1, "melting point": -50}
{"compound": "FC(F)(F)C(F)(F)C(F)(F)C(F)(F)C(F)(F)C(F)(F)I", "boiling point": 118, "melting point": -46}
{"compound": "CC1=CCC(C(C)(C)O)C[C@@H]1O", "note": "(some centres not stated)", "boiling point": 270, "melting point": 130}
{"compound": "Nc1ccc(N)c2c1C(=O)c1ccccc1C2=O", "log10 vapour pressure (mmHg)": -9.7, "melting point": 268}
{"compound": "CCCCOCC(C)C", "boiling point": 151}
{"compound": "CC(C)(C)ON=O", "boiling point": 63}
{"compound": "O=C(O)CC(=O)O", "ready biodegradability": "readily biodegradable"}
{"compound": "O=C(O)CC(S)C(=O)O", "note": "(configuration not stated)", "melting point": 149}
{"compound": "c1ccc(CNc2[nH]cnc3ncnc2-3)cc1", "log10 vapour pressure (mmHg)": -10.7, "melting point": 233}
{"compound": "CC(=O)OCCN(CCC#N)c1ccc(N=Nc2nc3ccc([N+](=O)[O-])cc3s2)cc1", "melting point": 167}
{"compound": "COc1cc2c(cc1OC)C(CCc1ccc(Cl)cc1)N(C)CC2", "note": "(configuration not stated)", "melting point": 110}
{"compound": "Nc1ccc(S(=O)(=O)Nc2ccccc2)cc1", "melting point": 200}
{"compound": "CCN=Cc1ccccc1", "boiling point": 196}
{"compound": "O=C1C=CC(=O)O1", "boiling point": 202, "log10 vapour pressure (mmHg)": -0.602, "melting point": 52.8, "ready biodegradability": "readily biodegradable"}
{"compound": "CCCCNC(C)=O", "boiling point": 229}
{"compound": "CCC(O)CO", "note": "(configuration not stated)", "boiling point": 194, "log10 vapour pressure (mmHg)": -1.3, "ready biodegradability": "readily biodegradable"}
{"compound": "CCC(CC)COCCC(=O)O", "boiling point": 343, "melting point": 32.5}
{"compound": "c1ccc2c(c1)OCCOCCOCCOc1ccccc1OCCOCCOCCO2", "melting point": 104}
{"compound": "CC1=CCCC(=O)C1", "boiling point": 201, "melting point": -21}
{"compound": "Oc1ccc2ccc3cccc4ccc1c2c34", "log10 vapour pressure (mmHg)": -8.32, "melting point": 180}
{"compound": "CCCCCCCCCCCCCCCC[N+](C)(C)C", "ready biodegradability": "not readily biodegradable"}
{"compound": "C=C1C(O)CC2(C(C)C)CC12", "note": "(configuration not stated)", "boiling point": 208}
{"conditions": "fish"}
{"compound": "Clc1ccc(C(c2ccc(Cl)cc2)C(Cl)(Cl)Cl)cc1", "log10 BCF": 4.29, "log10 biotransformation half-life (days)": 1.93}
{"compound": "CC1CNC(=S)N1", "note": "(configuration not stated)", "log10 BCF": 1}
